Source: US20100298141A1, “SUBSTITUTED PYRIDINE N-OXIDE HERBICIDES” (E. I. DU PONT DE NEMOURS AND COMPANY, priority 2007, published 2010)

Columns and labels:
common ragweed = assay: Test F preemergence test; type: in vivo, Ambrosia elation; details: scale 0 to 100
How it was run: (§1)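 Preemergence application to planted seeds, or postemergence to sugarcane plants; compound in non-phytotoxic solvent mix plus surfactant. Greenhouse, 14-21 days. Visual rating vs. controls.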

Italian ryegrass = assay: Test F preemergence test; type: in vivo, Lolium multiflorum; details: scale 0 to 100
How it was run: as §1

Surinam grass = assay: Test F preemergence test; type: in vivo, Brachiaria decumbens; details: scale 0 to 100
How it was run: as §1

Russian thistle = assay: Test C pre-/postemergence test; type: in vivo, Salsola kali; details: Preemergence
How it was run: (§2)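 Compounds in a non-phytotoxic solvent with surfactant applied preemergence to seeded pots and, at the same time, postemergence to plants 2–18 cm tall (1- to 4-leaf stage). Paddy tests: pots flooded to 3 cm, compound applied into the water, depth held throughout.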

field bindweed = assay: Test F preemergence test; type: in vivo, Convolvulus arvensis; details: scale 0 to 100
How it was run: as §1

goosegrass = assay: Test F preemergence test; type: in vivo, Eleusine indica; details: scale 0 to 100
How it was run: as §1

southern sandbur = assay: Test F preemergence test; type: in vivo, Cenchrus echinatus; details: scale 0 to 100
How it was run: as §1

crabgrass = assay: Test A pre-/postemergence greenhouse test; type: in vivo, Digitaria sanguinalis; details: for Crabgrass, Large plant response rating: 0 to 100 scale
How it was run: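 Untreated controls served as the reference for visual injury ratings taken about ten days after spraying. The non-phytotoxic solvent/surfactant formulation was applied preemergence to seeded loam and sand and postemergence to plants two to ten cm high.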

catchweed bedstraw = assay: Test C pre-/postemergence test; type: in vivo, Galium aparine; details: Preemergence
How it was run: as §2

downy brome = assay: Test C pre-/postemergence test; type: in vivo, Bromus tectorum
How it was run: as §2

large crabgrass = assay: Test F preemergence test; type: in vivo, Digitaria sanguinalis; details: scale 0 to 100
How it was run: as §1

itchgrass = assay: Test F preemergence test; type: in vivo, Rottboellia cochinchinensis; details: scale 0 to 100
How it was run: as §1

johnsongrass = assay: Test F preemergence test; type: in vivo, Sorghum halepense; details: scale 0 to 100
How it was run: as §1

green foxtail = assay: Test F preemergence test; type: in vivo, Setaria viridis; details: scale 0 to 100
How it was run: as §1

[1] = 31 g ai/ha, scale 0 to 100 (0 no effect, 100 complete control)

SMILES: Cc1cc[n+]([O-])c(S(=O)(=O)C(Cl)c2c(C(F)(F)F)nn(C)c2Cl)c1 (racemic) [Compound 22]
- Ragweed plant response rating (common ragweed; 62 g ai/ha, Preemergence): 50
- Ragweed plant response rating (common ragweed; 125 g ai/ha, preemergence): 80
- Plant response rating, Ragweed (common ragweed; Preemergence, 16 g ai/ha): 0
- Plant response rating, Ragweed (common ragweed; Preemergence, 31 g ai/ha): 0
- Ryegrass, Italian plant response rating (Italian ryegrass; 62 g ai/ha, Preemergence): 70
- Ryegrass, Italian plant response rating (Italian ryegrass; 125 g ai/ha, preemergence): 70
- Plant response rating, Ryegrass, Italian (Italian ryegrass; Preemergence, 16 g ai/ha): 0
- Plant response rating, Ryegrass, Italian (Italian ryegrass; Preemergence, 31 g ai/ha): 20
- Surinam Grass plant response rating (Surinam grass; 62 g ai/ha, Preemergence): 65
- Surinam Grass plant response rating (Surinam grass; 125 g ai/ha, preemergence): 90
- Plant response rating, Surinam Grass (Surinam grass; Preemergence, 31 g ai/ha): 0
- Russian Thistle plant response rating (Russian thistle; 62 g ai/ha, scale 0 to 100): 100
- Plant response rating, Russian Thistle (Russian thistle; [1]): 100
- Field Bindweed plant response rating (field bindweed; 62 g ai/ha, Preemergence): 0
- Field Bindweed plant response rating (field bindweed; 125 g ai/ha, preemergence): 35
- Plant response rating, Field Bindweed (field bindweed; Preemergence, 16 g ai/ha): 0
- Plant response rating, Field Bindweed (field bindweed; Preemergence, 31 g ai/ha): 0
- Goosegrass plant response rating (goosegrass; 62 g ai/ha, Preemergence): 80
- Goosegrass plant response rating (goosegrass; 125 g ai/ha, preemergence): 98
- Plant response rating, Goosegrass (goosegrass; Preemergence, 16 g ai/ha): 65
- Plant response rating, Goosegrass (goosegrass; Preemergence, 31 g ai/ha): 65
- Sandbur plant response rating (southern sandbur; 62 g ai/ha, Preemergence): 75
- Sandbur plant response rating (southern sandbur; 125 g ai/ha, preemergence): 98
- Plant response rating, Sandbur (southern sandbur; Preemergence, 31 g ai/ha): 65
- Crabgrass, Large plant response rating (crabgrass; Postemergence, 125 g ai/ha, 0 is no effect, 100 is complete control): 40
- Crabgrass, Large plant response rating (crabgrass; Postemergence, 500 g ai/ha, 0 is no effect, 100 is complete control): 80
- Crabgrass, Large plant response rating (crabgrass; Preemergence, 125 g ai/ha, 0 no effect, 100 complete control): 90
- Plant response rating, Crabgrass, Large (crabgrass; Preemergence, 500 g ai/ha, 0 to 100 scale where 0 is no effect and 100 is complete control): 90
- Galium plant response rating (catchweed bedstraw; 62 g ai/ha, scale 0 to 100): 100
- Plant response rating, Galium (catchweed bedstraw; [1]): 95
- Plant response rating (0 to 100), Galium (catchweed bedstraw; 250 g ai/ha): 100
- Bromegrass, Downy plant response rating (downy brome; 62 g ai/ha, Preemergence, scale 0 to 100): 0
- Plant response rating, Bromegrass, Downy (downy brome; Preemergence, 31 g ai/ha, scale 0 to 100 (0 no effect, 100 complete control)): 0
- Plant response rating (0 to 100), Bromegrass, Downy (downy brome; Preemergence, 250 g ai/ha): 0
- Bromegrass, Downy plant response rating (downy brome; preemergence, 125 g ai/ha, scale 0 (no effect) to 100 (complete control)): 0
- Crabgrass, Large plant response rating (large crabgrass; 62 g ai/ha, Preemergence): 70
- Crabgrass, Large plant response rating (large crabgrass; 125 g ai/ha, preemergence): 70
- Plant response rating, Crabgrass, Large (large crabgrass; Preemergence, 16 g ai/ha): 0
- Plant response rating, Crabgrass, Large (large crabgrass; Preemergence, 31 g ai/ha): 50
- Itchgrass plant response rating (itchgrass; 62 g ai/ha, Preemergence): 0
- Itchgrass plant response rating (itchgrass; 125 g ai/ha, preemergence): 60
- Plant response rating, Itchgrass (itchgrass; Preemergence, 16 g ai/ha): 0
- Plant response rating, Itchgrass (itchgrass; Preemergence, 31 g ai/ha): 0
- Johnsongrass plant response rating (johnsongrass; 62 g ai/ha, Preemergence): 60
- Johnsongrass plant response rating (johnsongrass; 125 g ai/ha, preemergence): 100
- Plant response rating, Johnsongrass (johnsongrass; Preemergence, 16 g ai/ha): 0
- Plant response rating, Johnsongrass (johnsongrass; Preemergence, 31 g ai/ha): 50
- Foxtail, Green plant response rating (green foxtail; 62 g ai/ha, Preemergence): 20
- Foxtail, Green plant response rating (green foxtail; 125 g ai/ha, preemergence): 95
- Plant response rating, Foxtail, Green (green foxtail; Preemergence, 16 g ai/ha): 0
- Plant response rating, Foxtail, Green (green foxtail; Preemergence, 31 g ai/ha): 15
